Tests used:
Con-NCI-H82 cell = assay: Cell viability (Promega CellTiter-Glo, intracellular ATP), IC50 on Con-NCI-H82 cell; assay type: cell-based; details: Homo sapiens; normal untreated NCI-H82 cell (control)
Excerpt: (§1) The expression of NNMT protein in NCI-H82 cell was overexpressed by inserting the NNMT gene into NCI-H82 cell using a viral vector, and the NNMT protein-overexpressing NCI-H82 cell (ov-NNMT NCI-H82 cell) was obtained. The normal and untreated NCI-H82 cell (Con-NCI-H82 cell) was used as control. The expressing content of NNMT protein in the ov-NNMT NCI-H82 cell and Con-NCI-H82 cell was detected using Western Blot assay (as shown in FIG. 1), it could be seen from FIG. 1 that the NNMT protein was overexpressed in the ov-NNMT NCI-H82 cell compared with the expression level of NNMT protein in the Con-NCI-H82 cell.
(§2) The cell viability was detected using the Promega CellTiter-Glo kit which reflected cell viability by measuring intracellular ATP content. The Con-NCI-H82 cell and ov-NNMT NCI-H82 cell was cultured in 10% fetal bovine serum-containing RPMI1640 medium (+P/S).

ov-NNMT NCI-H82 cell = assay: Cell viability (Promega CellTiter-Glo, intracellular ATP), IC50 on NNMT-overexpressing NCI-H82 cell; assay type: cell-based; details: Homo sapiens; NCI-H82 cell overexpressing NNMT protein
Excerpt: as §1, §2

Compound | IC50 (Con-NCI-H82 cell) [nM] | IC50 (ov-NNMT NCI-H82 cell) [nM]
Cc1ccc(C(=O)C[n+]2ccc3c(c2)CCN3c2ccccc2)cc1 [AB24994] | 810 | 2990
O=C(C[n+]1ccc2c(c1)CCC(c1ccccc1)N2)c1ccc(C(F)(F)F)cc1 (stereo not shown) [AB27102] | 1160 | 4590
O=C1c2ccc(OC(F)(F)F)cc2CCC1[n+]1ccc2c(c1)CCC(c1ccccc1)N2 (stereo not shown) [AB27105] | 874 | 5430
O=C1c2ccc(C(F)(F)F)cc2CCC1[n+]1ccc(NCc2ccccc2)cc1 (stereo not shown) [AB27110] | 996 | 5040
Cc1cccc(-c2c[nH]c3c[n+](CC(=O)c4ccc(OC(F)(F)F)cc4)ccc23)c1 [AB27121] | 2260 | 6450
O=C1c2cc(Cl)ccc2CCC1[n+]1ccc2c(c1)CCC(c1ccccc1)N2 (stereo not shown) [AB27134] | 3350 | 12400
O=C1c2cc(OC(F)(F)F)ccc2CCC1[n+]1cnc2c(c1)CCC(c1ccccc1)N2 (stereo not shown) [AB27136] | 5610 | 14600
Cc1ccc2c(c1)C(=O)C([n+]1cnc3c(c1)CCC(c1ccccc1)N3)CC2 (stereo not shown) [AB27137] | 4360 | 12000
O=C(C[n+]1ccc2c(c1)CCC(c1ccccc1)N2)c1cccc(C(F)(F)F)c1 (stereo not shown) [AB27146] | 1710 | 6790
O=C(C[n+]1ccc2c(c1)CCC(c1ccccc1)N2)c1cccc(OC(F)(F)F)c1 (stereo not shown) [AB27147] | 1390 | 5480
CCCn1ccc2c[n+](C3CCc4ccc(C(F)(F)F)cc4C3=O)ccc21 (stereo not shown) [AB27150] | 632 | 3170
CC(C)n1ccc2c[n+](C3CCc4ccc(C(F)(F)F)cc4C3=O)ccc21 (stereo not shown) [AB27151] | 1040 | 2980
CC(C)n1ccc2c[n+](C3CCc4ccc(OC(F)(F)F)cc4C3=O)ccc21 (stereo not shown) [AB27157] | 1530 | 6320
O=C(C[n+]1ccc(NCc2ccccc2)nc1)c1cccc(C(F)(F)F)c1 [AB27160] | 744 | 5490
Cc1ccc2c(c1)CCC([n+]1ccc3c(c1)c(C)cn3Cc1ccccc1)C2=O (stereo not shown) [AB27177] | 131 | 1860
Cc1ccc2c(c1)C(=O)C(n1ccc3c[n+](C(C)c4ccccc4)ccc31)CC2 (stereo not shown) [AB27180] | 16 | 222
CC(c1ccccc1)c1cn(C)c2c[n+](C3CCc4ccc(Cl)cc4C3=O)ccc12 (stereo not shown) [AB27186] | 1990 | 5690
CC(c1ccccc1)[n+]1ccc2c(ccn2C2CCc3ccsc3C2=O)c1 (stereo not shown) [AB27199] | 446 | 4830
Cc1nc2c(s1)C(=O)C(n1ccc3c[n+](C(C)c4ccccc4)ccc31)CC2 (stereo not shown) [AB27203] | 1940 | 6430
Cc1nc2c(s1)C(=O)C([n+]1ccc3c(ccn3Cc3ccccc3)c1)CC2 (stereo not shown) [AB27204] | 3450 | 13400
CC(c1ccccc1)[n+]1ccc2c(ccn2C2CCc3ccoc3C2=O)c1 (stereo not shown) [AB27205] | 2790 | 9490
O=C1c2occc2CCC1[n+]1ccc2c(ccn2Cc2ccccc2)c1 (stereo not shown) [AB27206] | 2540 | 7620
O=C1c2cc(Cl)ccc2CCC1[n+]1ccc2c(ccn2C(=O)c2ccccc2)c1 (stereo not shown) [AB27214] | 1740 | 6700

Compound | IC50 (Con-NCI-H82 cell) [nM] | IC50 (ov-NNMT NCI-H82 cell) [nM]
O=C1c2cc(Cl)ccc2CCC1[n+]1ccc2c(ccn2S(=O)(=O)c2ccccc2)c1 (stereo not shown) [AB27215] | 1610 | 10800
CCC(=O)N(Cc1ccccc1)c1cc[n+](CC(=O)c2ccc(C)cc2)cc1 [AB27232] | 290 | 3050
CCCC(=O)N(Cc1ccccc1)c1cc[n+](CC(=O)c2ccc(C)cc2)cc1 [AB27234] | 1270 | 6960
Cc1ccc(C(=O)C[n+]2ccc(N(Cc3ccccc3)C(=O)C(C)C)cc2)cc1 [AB27235] | 178 | 1980
CCc1cc(NCc2ccccc2)cc[n+]1CC(=O)c1ccc(C)cc1 [AB27236] | 50 | 822
Cc1ccc(C(=O)C[n+]2ccc(NCc3ccccc3)cc2C(C)C)cc1 [AB27237] | 39 | 525
Cc1ccc(C(=O)C[n+]2ccc(NCc3ccccc3)cc2C2CC2)cc1 [AB27238] | 151 | 1150
Cc1ccc(C[n+]2ccc3c(ccn3C3CCc4ccc(Cl)cc4C3=O)c2)cc1 (stereo not shown) [AB27240] | 15 | 285
Cc1cccc(C[n+]2ccc3c(ccn3C3CCc4ccc(Cl)cc4C3=O)c2)c1 (stereo not shown) [AB27241] | 14 | 184
Cc1ccccc1C[n+]1ccc2c(ccn2C2CCc3ccc(Cl)cc3C2=O)c1 (stereo not shown) [AB27242] | 15 | 204
O=C1c2cc(Cl)ccc2CCC1n1ccc2c[n+](Cc3ccccc3Cl)ccc21 (stereo not shown) [AB27243] | 15 | 184
O=C1c2cc(Cl)ccc2CCC1n1ccc2c[n+](Cc3cccc(Cl)c3)ccc21 (stereo not shown) [AB27244] | 24 | 342
O=C1c2cc(Cl)ccc2CCC1n1ccc2c[n+](Cc3ccc(Cl)cc3)ccc21 (stereo not shown) [AB27245] | 88 | 868
CCC(c1ccccc1)[n+]1ccc2c(ccn2C2CCc3ccc(Cl)cc3C2=O)c1 (stereo not shown) [AB27246] | 18 | 308
O=C1c2cc(OC(F)(F)F)ccc2CCC1[n+]1ccc2c(ccn2CC2CC2)c1 (stereo not shown) [AB27247] | 403 | 1650
CCCCCn1ccc2c[n+](C3CCc4ccc(OC(F)(F)F)cc4C3=O)ccc21 (stereo not shown) [AB27249] | 222 | 1520
CCCCCn1ccc2c[n+](C3CCc4ccc(Cl)cc4C3=O)ccc21 (stereo not shown) [AB27250] | 51 | 684
O=C1c2cc(Cl)ccc2CCC1[n+]1ccc2c(ccn2CC2CC2)c1 (stereo not shown) [AB27252] | 968 | 3690
CCCn1ccc2c[n+](C3CCc4ccc(Cl)cc4C3=O)ccc21 (stereo not shown) [AB27253] | 1680 | 5480
O=C1c2sc(Cl)nc2CCC1[n+]1ccc2c(ccn2Cc2ccccc2)c1 (stereo not shown) [AB27254] | 3590 | 12700
O=C(Cn1ccc2c[n+](Cc3ccccc3)ccc21)c1cccc(Cl)c1 [AB27258] | 14 | 276
Cc1cccc(C(=O)Cn2ccc3c[n+](Cc4ccccc4)ccc32)c1 [AB27259] | 18 | 235
Cc1ccc(C(=O)Cn2ccc3c[n+](Cc4ccccc4)ccc32)cc1 [AB27260] | 13 | 243

Compound | IC50 (Con-NCI-H82 cell) [nM] | IC50 (ov-NNMT NCI-H82 cell) [nM]
O=C(Cn1ccc2c[n+](Cc3ccccc3)ccc21)c1cccc(C(F)(F)F)c1 [AB27262] | 57 | 1000
O=C(Cn1ccc2c[n+](Cc3ccccc3)ccc21)c1cccc(OC(F)(F)F)c1 [AB27263] | 32 | 322
O=C(Cn1ccc2c[n+](Cc3ccccc3)ccc21)c1ccc(C(F)(F)F)cc1 [AB27264] | 267 | 2220
O=C(Cn1ccc2c[n+](Cc3ccccc3)ccc21)c1ccc(OC(F)(F)F)cc1 [AB27265] | 123 | 864
Cc1cn(CC(=O)c2cccc(Cl)c2)c2cc[n+](Cc3ccccc3)cc12 [AB27266] | 89 | 754
Cc1cccc(C(=O)Cn2cc(C)c3c[n+](Cc4ccccc4)ccc32)c1 [AB27267] | 113 | 903
Cc1ccc(C(=O)Cn2cc(C)c3c[n+](Cc4ccccc4)ccc32)cc1 [AB27268] | 104 | 1320
O=C(Cn1cc(Cl)c2c[n+](Cc3ccccc3)ccc21)c1cccc(Cl)c1 [AB27269] | 233 | 2180
Cc1cn(CC(=O)c2cccc(Cl)c2)c2cc[n+](C(C)c3ccccc3)cc12 (stereo not shown) [AB27270] | 401 | 3690
O=C1c2cc(Cl)ccc2CCC1n1cc(Cl)c2c[n+](Cc3ccccc3)ccc21 (stereo not shown) [AB27271] | 34 | 567
Cc1ccc(C(=O)C[n+]2ccc(NCc3ccccc3)c3ccccc32)cc1 [AB27272] | 776 | 5480
Cc1cc(NCc2ccccc2)cc[n+]1CC(=O)c1ccc(C(F)(F)F)cc1 [AB27273] | 187 | 1540
Cc1cc(NCc2ccccc2)cc[n+]1CC(=O)c1ccc(OC(F)(F)F)cc1 [AB27274] | 664 | 4530
Cc1cc(NCc2ccccc2)cc[n+]1CC(=O)c1cccc(C(F)(F)F)c1 [AB27275] | 63 | 886
Cc1cc(NCc2ccccc2)cc[n+]1CC(=O)c1cccc(OC(F)(F)F)c1 [AB27276] | 92 | 1130
Cc1ccc(C(=O)C[n+]2ccc(NCc3ccccc3)c(C)c2C)cc1 [AB27278] | 21 | 284
Cc1ccc(C(=O)CN(C)c2cc[n+](Cc3ccccc3)cc2)cc1 [AB27285] | 364 | 1350
Cc1ccc2c(c1)C(=O)C([n+]1ccc3cn(Cc4ccccc4)cc3c1)CC2 (stereo not shown) [AB27287] | 198 | 2540
O=C1c2cc(C(F)(F)F)ccc2CCC1[n+]1ccc2cn(Cc3ccccc3)cc2c1 (stereo not shown) [AB27288] | 344 | 2490
O=C1c2cc(OC(F)(F)F)ccc2CCC1[n+]1ccc2cn(Cc3ccccc3)cc2c1 (stereo not shown) [AB27289] | 285 | 2050
O=C1c2ccc(C(F)(F)F)cc2CCC1n1ccc2c[n+](Cc3ccccc3)ccc21 (stereo not shown) [AB27290] | 91 | 944
O=C1c2ccc(OC(F)(F)F)cc2CCC1n1ccc2c[n+](Cc3ccccc3)ccc21 (stereo not shown) [AB27291] | 79 | 1040

Reference: patent US20250214993A1, “AROMATIC RING COMPOUND AND USE THEREOF” (SHANGHAI SHIJIANG BIOTECHNOLOGY CO., LTD, priority 2022, published 2025)
